Source: patent publication US11426397B2, “Piperidinyl- and piperazinyl-substituted heteroaromatic carboxamides as modulators of GPR6” (TAKEDA PHARMACEUTICAL COMPANY LIMITED, priority 2017, dated 2022)

Each molecule was assayed against T1, GPR6 receptor expressed in CHO-K1 cells (Homo sapiens, UniProt P46095) (assay: In vitro inhibition of cAMP (EC50), cell-based HTRF cAMP assay). Conditions: inhibition of constitutive cAMP activity of GPR6 in CHO-K1 cells.
T1 construct: expressed in transfected cells
T1 sequence (P46095 whole entry): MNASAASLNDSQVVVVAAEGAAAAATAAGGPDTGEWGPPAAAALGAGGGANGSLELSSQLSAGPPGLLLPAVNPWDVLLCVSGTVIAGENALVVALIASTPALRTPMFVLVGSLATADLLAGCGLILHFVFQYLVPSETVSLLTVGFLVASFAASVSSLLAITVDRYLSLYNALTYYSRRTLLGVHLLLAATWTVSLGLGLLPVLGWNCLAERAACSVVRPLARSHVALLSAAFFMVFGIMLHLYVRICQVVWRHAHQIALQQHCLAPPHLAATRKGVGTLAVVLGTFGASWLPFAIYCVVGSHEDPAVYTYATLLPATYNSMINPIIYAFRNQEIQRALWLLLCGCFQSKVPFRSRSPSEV
In short: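 Tetracycline-inducible CHO-K1 line, GPR6 expression induced 20 h with 2 μg/mL doxycycline. Compounds incubated 45 min at 37 °C in Ringer's buffer (pH 7.4) with 0.5% fatty acid free BSA and 300 μM IBMX. Constitutive cAMP read by Lance HTRF; EC50 from four-parameter logistic fit.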

SMILES | pEC50, in vitro inhibition of cAMP
N#Cc1ccc(N2CCC(Oc3ccc(F)cc3F)CC2)c(NC(=O)c2ccc(O)nn2)c1 [Example 52, N-(5-cyano-2-(4-(2,4-difluorophenoxy)piperidin-1-yl)phenyl)-6-hydroxypyridazine-3-carboxamide] | 6.2
COCc1cnc(N2CCN(Cc3ccc(F)cc3F)CC2)c(NC(=O)c2cccnc2OC)c1 [Example 33, N-(2-(4-(2,4-difluorobenzyl)piperazin-1-yl)-5-(methoxymethyl)pyridin-3-yl)-2-methoxynicotinamide] | 7.2
COc1c(F)cccc1C(=O)Nc1cc(S(C)(=O)=O)ccc1N1CCC(Oc2ccc(F)cc2F)CC1 [Example 10] | 6.9
N#Cc1ccc(N2CCC(Oc3ccc(F)cc3F)CC2)c(NC(=O)c2cnon2)c1 [Example 139, N-(5-cyano-2-(4-(2,4-difluorophenoxy)piperidin-1-yl)phenyl)-1,2,5-oxadiazole-3-carboxamide] | <4.5
COc1nn(C)cc1C(=O)Nc1cc(C#N)cnc1N1CCN(Cc2cc(C#N)ccc2F)CC1 [Example 151, N-(5-cyano-2-(4-(5-cyano-2-fluorobenzyl)piperazin-1-yl)pyridin-3-yl)-3-methoxy-1-methyl-1H-pyrazole-4-carboxamide] | 6.3
COc1ncc(F)cc1C(=O)Nc1cnc(C(=O)N(C)C)cc1N1CCC(Oc2ccc(F)cc2F)CC1 [Example 32] | 7.0
N#Cc1ccc(N2CCC(Oc3ccc(F)cc3F)CC2)c(NC(=O)c2ccsn2)c1 [Example 128, N-(5-cyano-2-(4-(2,4-difluorophenoxy)piperidin-1-yl)phenyl)isothiazole-3-carboxamide] | 6.6
COc1cc(Cl)c(Cl)cc1C(=O)Nc1cc(C#N)ccc1N1CCC(Oc2ccc(F)cc2F)CC1 [Example 190, 4,5-dichloro-N-(5-cyano-2-(4-(2,4-difluorophenoxy)piperidin-1-yl)phenyl)-2-methoxybenzamide] | 6.5
COc1nc(Cl)ccc1C(=O)Nc1cc(C#N)ccc1N1CCC(Oc2ccc(F)cc2F)CC1 [Example 191, 6-chloro-N-(5-cyano-2-(4-(2,4-difluorophenoxy)piperidin-1-yl)phenyl)-2-methoxynicotinamide] | 6.8
Cc1onc(C(=O)Nc2cc(C#N)ccc2N2CCC(Oc3ccc(F)cc3F)CC2)c1C [Example 131, N-(5-cyano-2-(4-(2,4-difluorophenoxy)piperidin-1-yl)phenyl)-4,5-dimethylisoxazole-3-carboxamide] | 7.0
COc1ncccc1C(=O)Nc1cc(CNC(C)=O)cnc1N1CCC(Oc2ccc(F)cc2F)CC1 [Example 64, N-(5-(acetamidomethyl)-2-(4-(2,4-difluorophenoxy)piperidin-1-yl)pyridin-3-yl)-2-methoxynicotinamide] | 7.0
N#Cc1ccc(N2CCC(Oc3ccc(F)cc3F)CC2)c(NC(=O)c2cnc3sccn3c2=O)c1 [Example 200, N-(5-cyano-2-(4-(2,4-difluorophenoxy)piperidin-1-yl)phenyl)-5-oxo-5H-thiazolo[3,2-a]pyrimidine-6-carboxamide] | 6.9
COc1cccnc1C(=O)Nc1cc(C#N)ccc1N1CCC(Oc2ccc(F)cc2F)CC1 [Example 26, N-(5-cyano-2-(4-(2,4-difluorophenoxy)piperidin-1-yl)phenyl)-3-methoxypicolinamide] | 6.4
Cc1ccc(SC2CCN(c3ncc(C#N)cc3NC(=O)c3ccccn3)CC2)cc1 [Example 69, N-(5-cyano-2-(4-(p-tolylthio)piperidin-1-yl)pyridin-3-yl)picolinamide] | 6.7
N#Cc1ccc(N2CCC(Oc3ccc(F)cc3F)CC2)c(NC(=O)c2ncccc2F)c1 [Example 108, N-(5-cyano-2-(4-(2,4-difluorophenoxy)piperidin-1-yl)phenyl)-3-fluoropicolinamide] | 7.0
COc1ccc(C(=O)Nc2cc(C#N)ccc2N2CCC(Oc3ccc(F)cc3F)CC2)c(OC)n1 [Example 78, N-(5-cyano-2-(4-(2,4-difluorophenoxy)piperidin-1-yl)phenyl)-2,6-dimethoxynicotinamide] | 6.9
COc1cccc(CN2CCN(c3ncc(C#N)cc3NC(=O)c3cn(C)nc3OC)CC2)c1 [Example 156, N-(5-cyano-2-(4-(3-methoxybenzyl)piperazin-1-yl)pyridin-3-yl)-3-methoxy-1-methyl-1H-pyrazole-4-carboxamide] | 6.4
COc1ccc(C(=O)C2CCN(c3ccc(C#N)cc3NC(=O)c3cccn(C)c3=O)CC2)c(F)c1 [Example 81, N-(5-cyano-2-(4-(2-fluoro-4-methoxybenzoyl)piperidin-1-yl)phenyl)-1-methyl-2-oxo-1,2-dihydropyridine-3-carboxamide] | 6.9
COc1nn(C)cc1C(=O)Nc1cc(C#N)cnc1N1CCN(Cc2ccccc2OC(F)(F)F)CC1 [Example 167, N-(5-cyano-2-(4-(2-(trifluoromethoxy)benzyl)piperazin-1-yl)pyridin-3-yl)-3-methoxy-1-methyl-1H-pyrazole-4-carboxamide] | 6.5
Cc1nc(C(=O)Nc2cc(C#N)ccc2N2CCC(Oc3ccc(F)cc3F)CC2)cs1 [Example 105] | 7.0
Cn1cccc(C(=O)Nc2cc(C#N)ccc2N2CCC(Oc3ccc(F)cc3)CC2)c1=O [Example 4, N-(5-cyano-2-(4-(4-fluorophenoxy)piperidin-1-yl)phenyl)-1-methyl-2-oxo-1,2-dihydropyridine-3-carboxamide] | 6.7
CS(=O)(=O)c1ccc(N2CCC(Oc3ccc(F)cc3F)CC2)c(NC(=O)c2cnn3c2OCCCC3)c1 [Example 38, N-(2-(4-(2,4-difluorophenoxy)piperidin-1-yl)-5-(methylsulfonyl)phenyl)-5,6,7,8-tetrahydropyrazolo[5,1-b][1,3]oxazepine-3-carboxamide] | 6.8

Now from value to molecule:

pEC50, in vitro inhibition of cAMP | SMILES
7.3 | COc1ncc(F)cc1C(=O)Nc1ccc(C#N)nc1N1CCC(Oc2ccc(F)cc2F)CC1 [Example 255, N-(6-cyano-2-(4-(2,4-difluorophenoxy)piperidin-1-yl)pyridin-3-yl)-5-fluoro-2-methoxynicotinamide]
6.3 | CCn1c(C)cc(C)c(C(=O)Nc2cc(C#N)ccc2N2CCC(Oc3ccc(F)cc3F)CC2)c1=O [Example 202]
6.4 | COc1ccc(Br)cc1C(=O)Nc1cc(C#N)ccc1N1CCC(Oc2ccc(F)cc2F)CC1 [Example 225, 5-bromo-N-(5-cyano-2-(4-(2,4-difluorophenoxy)piperidin-1-yl)phenyl)-2-methoxybenzamide]
6.9 | COc1ccc(C(F)(F)F)cc1C(=O)Nc1cc(C#N)ccc1N1CCC(Oc2ccc(F)cc2F)CC1 [Example 208, N-(5-cyano-2-(4-(2,4-difluorophenoxy)piperidin-1-yl)phenyl)-2-methoxy-5-(trifluoromethyl)benzamide]
<4.5 | COc1ccc(Cl)c(OC)c1C(=O)Nc1cc(C#N)ccc1N1CCC(Oc2ccc(F)cc2F)CC1 [Example 212, 3-chloro-N-(5-cyano-2-(4-(2,4-difluorophenoxy)piperidin-1-yl)phenyl)-2,6-dimethoxybenzamide]
7.0 | CCNC(=O)c1cc(N2CCC(Oc3ccc(F)cc3F)CC2)c(NC(=O)c2cccnc2OC)cn1 [Example 252, 4-(4-(2,4-difluorophenoxy)piperidin-1-yl)-N-ethyl-5-(2-methoxynicotinamido)picolinamide]
7.1 | COc1ccncc1C(=O)Nc1cnc(C)cc1N1CCC(Oc2ccc(F)cc2F)CC1 [Example 263]
6.9 | COCc1cc(N2CCC(Oc3ccc(F)cc3F)CC2)c(NC(=O)c2cccnc2OC)cn1 [Example 268]
6.1 | COc1ccc(C(C)(C)C)cc1C(=O)Nc1cc(C#N)ccc1N1CCC(Oc2ccc(F)cc2F)CC1 [Example 209, 5-(tert-butyl)-N-(5-cyano-2-(4-(2,4-difluorophenoxy)piperidin-1-yl)phenyl)-2-methoxybenzamide]
6.9 | COc1ncccc1C(=O)Nc1cnc(C(N)=O)cc1N1CCC(Oc2ccc(F)cc2F)CC1 [Example 269, 4-(4-(2,4-difluorophenoxy)piperidin-1-yl)-5-(2-methoxynicotinamido)picolinamide]
6.8 | COc1ncccc1C(=O)Nc1cnc(C(=O)NC(C)C)cc1N1CCC(Oc2ccc(F)cc2F)CC1 [Example 253, 4-(4-(2,4-difluorophenoxy)piperidin-1-yl)-N-isopropyl-5-(2-methoxynicotinamido)picolinamide]
4.9 | O=C(Nc1ccccc1N1CCN(C(=O)c2ccc(Cl)cc2)CC1)c1ncccn1 [Example 258, N-(2-(4-(4-chlorobenzoyl)piperazin-1-yl)phenyl)pyrimidine-2-carboxamide]
7.4 | COc1ncccc1C(=O)Nc1cc(C(=O)N(C)C)c(C#N)cc1N1CCC(Oc2ccc(F)cc2F)CC1 [Example 272]
6.4 | COc1c(C(=O)Nc2cc(C#N)ccc2N2CCC(Oc3ccc(F)cc3F)CC2)ccc(F)c1F [Example 233, N-(5-cyano-2-(4-(2,4-difluorophenoxy)piperidin-1-yl)phenyl)-3,4-difluoro-2-methoxybenzamide]
